Source: paper PMC8910920 (International Journal of Molecular Sciences, 2022)
Read-outs that look alike come from different tables or passages of the source. Each block holds one compound with its values, some of them ahead of it.

Legend:
[1] = tested on: OXA-induced cold hypersensitivity in male mice; parameters: method as in PMID 32843690; details: ref [31]; cited from earlier work
[2] = molecular target: T1, rTRPM8 (Rattus norvegicus, UniProt Q8R455); experiment: Whole-cell patch-clamp, HEK293-rTRPM8 cells; type: cell-based; details: HEK293-rTRPM8, 100 μM menthol, holding voltage −60 mV
T1 construct: expressed in transfected cells
T1 sequence (Q8R455 whole entry): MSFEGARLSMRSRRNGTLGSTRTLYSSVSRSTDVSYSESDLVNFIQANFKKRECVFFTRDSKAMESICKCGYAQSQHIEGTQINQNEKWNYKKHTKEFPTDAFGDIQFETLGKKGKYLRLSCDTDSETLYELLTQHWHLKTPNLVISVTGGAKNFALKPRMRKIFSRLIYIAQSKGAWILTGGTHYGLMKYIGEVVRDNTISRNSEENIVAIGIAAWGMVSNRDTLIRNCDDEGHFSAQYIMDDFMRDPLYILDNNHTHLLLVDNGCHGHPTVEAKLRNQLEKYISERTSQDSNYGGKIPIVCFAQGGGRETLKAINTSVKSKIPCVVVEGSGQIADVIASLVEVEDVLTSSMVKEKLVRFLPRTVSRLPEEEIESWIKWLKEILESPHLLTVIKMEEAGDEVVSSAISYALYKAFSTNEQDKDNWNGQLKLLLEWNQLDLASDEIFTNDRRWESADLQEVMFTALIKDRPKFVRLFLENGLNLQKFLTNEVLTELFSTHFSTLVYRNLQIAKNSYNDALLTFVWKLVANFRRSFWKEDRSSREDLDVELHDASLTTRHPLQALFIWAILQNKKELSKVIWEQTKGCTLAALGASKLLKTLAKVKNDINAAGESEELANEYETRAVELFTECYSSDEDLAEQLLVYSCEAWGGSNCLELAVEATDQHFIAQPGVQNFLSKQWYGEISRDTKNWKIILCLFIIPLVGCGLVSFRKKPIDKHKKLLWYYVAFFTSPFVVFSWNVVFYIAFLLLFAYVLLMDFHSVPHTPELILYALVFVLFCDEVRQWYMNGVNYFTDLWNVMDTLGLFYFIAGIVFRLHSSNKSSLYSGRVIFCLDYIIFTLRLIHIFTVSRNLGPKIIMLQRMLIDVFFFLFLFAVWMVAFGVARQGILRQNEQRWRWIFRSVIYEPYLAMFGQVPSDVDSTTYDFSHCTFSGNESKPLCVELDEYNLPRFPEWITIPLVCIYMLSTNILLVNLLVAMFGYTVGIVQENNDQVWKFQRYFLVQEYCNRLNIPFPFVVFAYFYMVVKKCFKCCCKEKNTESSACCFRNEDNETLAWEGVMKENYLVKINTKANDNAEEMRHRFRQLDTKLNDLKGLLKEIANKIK
Experimental: To confirm the antagonistic activity, electrophysiology (patch-clamp) studies were performed on HEK293 cells expressing the rTRPM8 channel. […] Then, using a holding voltage of −60 mV, different concentrations of RGM8-51 were used to establish the concentration/response curve for rTRPM8 current blockade.
Whole-cell patch-clamp recordings from HEK293-rTRPM8 cells were carried out 2 days after seeding on 12 mm Ø glass coverslips treated with poly-L-lysine solution (Sigma Aldrich, Spain); the intracellular pipette solution contained (in mM) 150 NaCl, 5 EGTA, 3 MgCl2 and 10 HEPES, adjusted to pH 7.2 with NaOH, and the extracellular solution contained (in mM) 150 NaCl, 6 CsCl, 1.5 CaCl2, 1 MgCl2, 10 D-glucose and 10 HEPES, adjusted to pH 7.4 with NaOH. The TRPM8 activity was measured by the application of two pulses of 100 μM menthol in a time interval of 2 min and a 30 s perfusion of the different compound concentrations before the second menthol pulse.
Data were sampled at 10 kHz (EPC10 amplifier with PatchMaster 2.53 software, HEKA Electronics, Lambrecht, Germany) and low-pass filtered at 3 kHz for analysis (PatchMaster 2.53 and GraphPad Prism 6.0, Graphpad Software, San Diego, CA, USA). The series resistance was <10 MΩ and to minimize voltage errors was compensated by 60–80%. […] Cell capacitance was measured and used to estimate the current density (J, pA/pF).
Data analysis: For the whole-cell patch-clamp experiments, results are expressed as the percentage of remaining activation of the TRPM8 channel. This is calculated by normalizing the ratio (p2/p1) of testing conditions to the ratio (p2/p1) of the control condition. […] All data are expressed as the mean ± standard error of the mean (SEM) (n = 5–8). In the current-clamp experiments, the change in membrane potential is expressed as the difference between the resting membrane potential and the membrane potential after the addition of a stimuli. Data were analyzed as previously described (GraphPad 6.0, one-way ANOVA followed by Bonferroni multiple comparisons test, and ROUT method, Q = 10%).

[3] = molecular target: T1, rTRPM8; experiment: Ca2+ microfluorography assay, HEK293 cells expressing rTRPM8, menthol activation; type: cell-based; details: HEK293-rTRPM8, 100 μM menthol
Experimental: This represents a similar activity as β–lactam 2 and a somewhat higher potency than the model TRPM8 antagonists AMTB.
To measure the effect of the compounds against TRPM8 activity we used microfluorometry-based calcium flux assays with Fluo-4 NW Ca^2+ dye and fluorescence as described in [30]. Briefly, human embryonic kidney cell line (HEK293) cells stably transfected with rTRPM8 or hTRPM8 were seeded in 96-well plates at a cell density of 30,000 cells. After 2 days the medium was replaced with 100 μL of the dye, Fluo-4 NW, loading solution supplemented with probenecid 2.5 mM and incubated 1 h at 37 °C. The TRPM8 activity was measured using POLASTAR plate reader (BMG Labtech) setting the excitation wavelength at 485 nm and the emission wavelength at 520 nm. The baseline fluorescence was recorded for 3 cycles before the addition of vehicle compound at different concentrations and the antagonist, 10 μM AMTB. Fluorescence intensity was recorded during 7 more cycles and 100 μM menthol was added. Fluorescence intensity was recorded during 10 more cycles.
Data analysis: The Z-factor was calculated in each assay using the following equation: […]. In all the experiments, the Z-factor was ≥0.5. The effect of the compounds against TRPM8 activity was determined by normalizing their effect on the maximum fluorescence observed after application of 100 μM menthol. Decrease in menthol signal was expressed as percentage of inhibition (%). All data are expressed as the mean ± standard deviation (SD). Data are expressed as the concentration exerting a half-maximal inhibition of agonist-induced [Ca^2+]i elevation (IC50), which was calculated again using GraphPad Prism® software. All determinations were performed in triplicate (n = 3) in 3 independent experiments (N = 3).

[4] = molecular target: T1, rTRPM8; parameters: method as in PMID 32843690; details: reference antagonist value; ref [31]; read-out: rTRPM8 IC50, Ca2+ microfluorography; cited from earlier work
[5] = tested on: CACO-2 cell monolayers; experiment: Caco-2 permeability; type: in vitro ADME; details: CACO-2 cell monolayer
Experimental: These studies were subcontracted to Eurofins-CEREP or Eurofins-PANLABS. Briefly, agonists and antagonist assays were performed in cell cultures overexpressing the corresponding channel (CHO: TRPV1 and TRPA1; HEK293: TRPV3 and ASIC3). In vitro pharmacology, cellular channel functional assays: the compound was prepared in assay buffer to the final concentration, 10 μM. The compound wells, reference agonist and background vehicle controls were prepared in DMSO at 0.3%. The reference agonist for each Ion Channel assayed was prepared in a similar manner to serve as the assay control. The reference agonist for each Ion Channel was included at Emax (the concentration where the reference agonist elicited a maximal response). The agonist assay was conducted on fluorimeter instruments where the test compound, vehicle controls, and reference agonist were added to the assay plate after a fluorescence baseline was established. The agonist assay was used to assess each compound’s ability to activate each Ion Channel assayed. For the antagonist assay, the compound was pre-incubated for five minutes at room temperature, and then challenged with the EC80 concentration of the reference agonist after establishment of a fluorescence baseline. Vehicle controls and EC80 concentration of reference agonist were added to appropriate wells. The antagonist assay was used to assess each compound’s ability to inhibit activation by the corresponding Ion Channel agonist. ASIC3 ionflux antagonist assay: all recordings were obtained from a holding potential of -60 mV. The compound addition sequence was as follows: one addition of pH5.5 buffer was added to establish the baseline response, the test concentration of compound was applied for 30 s, followed by the addition of pH5.5 of compound for 2 s. Binding assays were performed in CHO cell cultures overexpressing human CGRPR, CB2 and M2 receptors. RGM8-51 (10 μM) was tested, and reference compounds used as control agonists and antagonists are detailed in Table 2, footnote. Binding assay results are expressed as a percent of control specific binding. […] Aqueous solubility (μM) was determined by comparing the peak area of the principal peak in a calibration standard (200 μM) containing organic solvent (methanol/water, 60/40, v/v) with the peak area of the corresponding peak in a buffer sample. Partition coefficient: the total amount of compound was determined as the peak area of the principal peak in a calibration standard (100 μM) containing organic solvent (methanol/water, 60/40, v/v). The amount of compound in buffer was determined as the combined, volume-corrected, and weighted areas of the corresponding peaks in the aqueous phases of three organic-aqueous samples of different composition. An automated weighting system was used to ensure the preferred use of raw data from those samples with well quantifiable peak signals. The amount of compound in organic phase was calculated by subtraction. Subsequently, Log D was calculated as the Log10 of the amount of compound in the organic phase divided by the amount of compound in the aqueous phase. […] Permeability was measured in CACO-2 monolayers. Percentage of compounds in the receptors wells was measured using HPLC. […] In vitro metabolism was measured in human liver microsomes. […] The apparent intrinsic clearance (CLint, in μL/min/mg) was calculated from the half-life time.

[6] = tested on: serum proteins; experiment: Protein binding; type: in vitro ADME, human

IC50 [2]: 0.9 ± 1 µM
IC50 [3]: 3.1 ± 1.1 µM
SMILES: C[C@@H]1C(=O)N(C[C@H](Cc2ccccc2)NC(=O)OCc2ccccc2)[C@]1(Cc1ccccc1)C(=O)OCc1ccccc1 [Compound 2, reference compound]
relief of oxaliplatin-induced cold hypersensitivity [1]: significant activity

SMILES: Cc1cccc(COc2ccccc2C(=O)N(CCCN)Cc2cccs2)c1 [AMTB]
IC50 [4]: 7.3 ± 1.5 µM

Permeability B-A (%) [5]: 74%
Permeability A-B (%) ([5]; percentage of compound in the acceptor cell): 70%
SMILES: CC(C)NCC(O)COc1cccc2ccccc12 (stereo not shown) [Propanolol, reference compound]

Binding to proteins (%) [6]: 99%
SMILES: CC(=O)CC(c1ccccc1)c1c(O)c2ccccc2oc1=O (stereo not shown) [Warfarin, reference compound]
